In PMC10295947 (Biomolecules, 2023):
Structures can show the parent of a compound that is named as a salt.

Biological target: MOR (Mus musculus, UniProt P42866)
Assay type: biochemical

Chain of MOR (P42866 whole entry): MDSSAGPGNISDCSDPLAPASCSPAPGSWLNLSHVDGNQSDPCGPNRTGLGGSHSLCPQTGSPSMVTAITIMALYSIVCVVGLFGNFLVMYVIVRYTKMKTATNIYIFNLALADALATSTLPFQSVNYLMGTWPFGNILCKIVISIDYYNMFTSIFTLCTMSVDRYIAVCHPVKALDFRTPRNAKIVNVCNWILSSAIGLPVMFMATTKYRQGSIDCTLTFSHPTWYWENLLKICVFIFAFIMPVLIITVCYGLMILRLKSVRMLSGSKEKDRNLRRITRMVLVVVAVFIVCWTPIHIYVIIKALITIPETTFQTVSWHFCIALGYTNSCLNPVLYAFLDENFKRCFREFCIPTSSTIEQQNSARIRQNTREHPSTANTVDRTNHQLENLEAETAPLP

COc1ccsc1CNCC[C@@]1(c2ccccn2)CCOC2(CCCC2)C1 [oliceridine, Oliceridine hydrochloride]
Stimulation of 35S-GTPγS binding (in words): no measurable stimulation
